According to article PMC9303812, “Asymmetrically Substituted m‐Terphenyl Phosphates Inhibit the Transcription Factor STAT5a” (Chembiochem, 2021):

How the values were obtained:
STAT5a [1] = target: T1, STAT5a (Homo sapiens, UniProt P42229); assay: Fluorescence polarization (FP) binding assay, STAT5a
T1 sequence (P42229 1-794): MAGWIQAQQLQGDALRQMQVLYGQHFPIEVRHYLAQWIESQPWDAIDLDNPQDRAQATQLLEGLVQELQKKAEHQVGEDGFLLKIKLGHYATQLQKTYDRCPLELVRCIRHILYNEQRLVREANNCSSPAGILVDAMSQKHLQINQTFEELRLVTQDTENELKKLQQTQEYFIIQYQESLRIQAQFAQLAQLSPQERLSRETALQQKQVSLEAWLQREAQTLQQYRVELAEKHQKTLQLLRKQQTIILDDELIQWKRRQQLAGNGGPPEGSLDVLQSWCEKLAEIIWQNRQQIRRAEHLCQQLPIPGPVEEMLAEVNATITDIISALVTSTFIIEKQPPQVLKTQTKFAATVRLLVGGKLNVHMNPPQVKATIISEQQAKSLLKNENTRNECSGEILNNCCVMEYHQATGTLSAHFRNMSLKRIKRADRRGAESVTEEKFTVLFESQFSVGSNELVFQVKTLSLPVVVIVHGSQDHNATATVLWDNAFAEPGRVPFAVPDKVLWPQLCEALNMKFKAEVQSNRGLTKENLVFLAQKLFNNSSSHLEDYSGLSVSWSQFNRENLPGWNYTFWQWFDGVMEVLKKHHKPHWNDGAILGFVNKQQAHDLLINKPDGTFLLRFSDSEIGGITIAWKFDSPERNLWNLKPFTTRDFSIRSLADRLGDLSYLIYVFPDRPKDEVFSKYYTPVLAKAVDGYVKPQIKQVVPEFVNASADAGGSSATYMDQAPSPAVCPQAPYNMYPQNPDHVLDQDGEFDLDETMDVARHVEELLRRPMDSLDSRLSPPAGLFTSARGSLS
Procedure: (§1) Table S1: Activities of test compounds against STAT5a and STAT5b in FP assays . Experiments were carried out in triplicate (n = 3) unless stated otherwise. n/a: not applicable.
(§2) [a]data taken from the literature.[1]
(§3) Ki values were calculated from IC50 values using the published equation.[2] […]
(§4) Table S2: Activities of 12 against STAT5 proteins in FP assays.
(§5) Fluorescence polarization assays
(§6) Fluorescence polarization assays were essentially carried out as previously described.[1] These assays quantitate to which extent a test compound is able to interfere with binding between a STAT protein and a fluorescein-labeled phosphotyrosine-containing peptide, which is known to bind to the SH2 domain of the respective STAT protein. The following protein […]
(§7) concentrations were used: 100 nM for STAT1, 150 nM for STAT3, 30 nM for STAT4, 180 nM for STAT5a, 90 nM for STAT5b and 105 nM for STAT6. All peptides were used at a concentration of 10 nM. The following peptides were used: 5 -carboxyfluorescein -GpYDKPHVL for STAT1; 5-carboxyfluorescein -GpYLPQTV-NH2 for STAT3; 5-carboxyfluorescein-GpYLPQNID-OH for STAT4; 5-carboxyfluorescein-GpYLVLDKW for STAT5a/b, and 5-carboxyfluorescein-GpYVPWQDLI-OH for STAT6. As a buffer system, 10 mM Tris (pH 8.0), 50 mM NaCl, 1 mM EDTA, 1 mM DTT, 0.1 % Nonidet P-40 substitute, and 2 % DMSO in water was used. All compounds tested were incubated for 1 h with the protein. Subsequently, the fluorescein-labeled peptide was added and the fluorescence polarization was measured with an Infinite F500 plate reader (Tecan) after another hour. IC50 values were converted to Ki-values using the published equation.[2]

STAT5b = target: T2, STAT5b (Homo sapiens, UniProt P51692); assay: Fluorescence polarization (FP) binding assay, STAT5b; details: for inhibition at 200 µM: read-out: STAT5b inhibition at 200 μM
T2 sequence (P51692 1-787): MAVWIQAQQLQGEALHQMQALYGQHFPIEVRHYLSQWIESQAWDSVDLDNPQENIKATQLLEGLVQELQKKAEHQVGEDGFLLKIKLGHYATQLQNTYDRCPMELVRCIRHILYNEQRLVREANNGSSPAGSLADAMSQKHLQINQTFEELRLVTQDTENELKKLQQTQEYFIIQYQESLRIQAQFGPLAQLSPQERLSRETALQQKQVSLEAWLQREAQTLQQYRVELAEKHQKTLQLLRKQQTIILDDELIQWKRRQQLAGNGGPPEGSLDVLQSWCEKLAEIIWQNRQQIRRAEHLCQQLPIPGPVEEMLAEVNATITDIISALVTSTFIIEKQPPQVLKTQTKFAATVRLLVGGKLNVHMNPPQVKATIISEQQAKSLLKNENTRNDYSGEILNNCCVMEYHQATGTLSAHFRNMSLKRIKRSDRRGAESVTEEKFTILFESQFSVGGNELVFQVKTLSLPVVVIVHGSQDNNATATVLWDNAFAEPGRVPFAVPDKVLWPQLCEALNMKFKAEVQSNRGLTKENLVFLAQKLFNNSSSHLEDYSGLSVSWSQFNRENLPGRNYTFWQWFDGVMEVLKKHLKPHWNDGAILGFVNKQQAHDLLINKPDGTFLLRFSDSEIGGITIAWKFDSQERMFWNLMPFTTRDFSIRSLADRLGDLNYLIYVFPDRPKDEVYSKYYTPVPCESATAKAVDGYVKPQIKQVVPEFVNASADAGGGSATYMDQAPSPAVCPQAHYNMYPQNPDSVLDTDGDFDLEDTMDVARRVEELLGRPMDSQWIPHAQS
Procedure: as §1, §2, §3, §4, §5, §6, §7

STAT5a [2] = target: T1, STAT5a; details: cited from earlier work

| SMILES | IC50 (STAT5a [1]) | Ki (STAT5a [1]) | IC50 (STAT5b) | Ki (STAT5b) | melting point | inhibition at 200 µM (STAT5b) | selectivity for STAT5a over STAT5b (STAT5a [2]) |
| --- | --- | --- | --- | --- | --- | --- | --- |
| COc1cc(-c2cc(OP(=O)(O)O)cc(-c3cc(Cl)c(Cl)c(Cl)c3)c2)cc(OC)c1OC [6 a] | 21.8 ± 0.9 µM | 10.2 ± 0.4 µM | 47 ± 2.6 µM | 23.1 ± 1.3 µM |  |  |  |
| COc1cc(-c2cc(OP(=O)(O)O)cc(-c3ccc(Cl)cc3)c2)cc(OC)c1OC [6 c] | 45.7 ± 3.3 µM | 22.6 ± 1.6 µM | 93.8 ± 1.5 µM | 46.1 ± 0.8 µM | 129 °C |  |  |
| COc1cc(-c2cc(OP(=O)(O)O)cc(-c3ccc(F)cc3)c2)cc(OC)c1OC [6 d] | 66.5 ± 5 µM | 33 ± 2.5 µM |  |  | 165 °C | 51 ± 4% |  |
| COc1cc(-c2cc(OP(=O)(O)O)cc(-c3ccc(Cl)c(F)c3)c2)cc(OC)c1OC [6 e] | 34.7 ± 4.4 µM | 17.1 ± 2.2 µM | 104 ± 9.5 µM | 51.2 ± 4.7 µM | 127 °C |  |  |
| COc1cc(-c2cc(OP(=O)(O)O)cc(-c3ccc(C(N)=O)cc3)c2)cc(OC)c1OC [6 f] | 68.9 ± 4.9 µM | 34.1 ± 2.4 µM |  |  |  | 21 ± 6% |  |
| CCOC(=O)c1ccc(-c2cc(OP(=O)(O)O)cc(-c3cc(OC)c(OC)c(OC)c3)c2)cc1 [6 g] | 91.2 ± 5.5 µM | 45.2 ± 2.7 µM | 125 ± 3.7 µM | 61.3 ± 1.8 µM | 150 °C |  |  |
| COc1cc(-c2cc(OP(=O)(O)O)cc(-c3ccc(C(=O)O)cc3)c2)cc(OC)c1OC [6 h] | 36.8 ± 2.2 µM | 18.2 ± 1.1 µM |  |  | 152 °C | 50 ± 2% |  |
| COc1cc(-c2cc(OP(=O)(O)O)cc(-c3ccc(C(C)C)cc3)c2)cc(OC)c1OC [6 i] | 48.5 ± 4.8 µM | 24 ± 2.4 µM | 51.8 ± 5.1 µM | 25.5 ± 2.5 µM | 182 °C |  |  |
| COc1cc(-c2cc(OP(=O)(O)O)cc(-c3ccc(C(C)(C)C)cc3)c2)cc(OC)c1OC [6 j] | 66.9 ± 4.9 µM | 33.2 ± 2.4 µM | 51.4 ± 4.9 µM | 25.3 ± 2.4 µM |  |  |  |
| COc1cc(-c2cc(OP(=O)(O)O)cc(-c3cc(OC)c(OC)c(OC)c3)c2)cc(OC)c1OC [compound 1] |  |  |  |  |  |  | at least 9 fold |
